Reference: patent US11236102B2, “Oxabicycloheptane prodrugs” (Lixte Biotechnology, Inc., priority 2015, dated 2022)

Tests used:
[1] = Whole blood stability (half-life) and metabolite formation; assay type: in vitro ADME, rat, dog, monkey and human; conditions: cross species
Method: The stability (whole blood, liver S9, SGF, SIF, and PBS buffer) and MDCK-MDR1 monolayer permeability of LB100, LB-100 Carbonate and LB-100 POM were evaluated.
Samples were analyzed by LC-MS/MS using a SCIEX QTrap 5500 mass spectrometer coupled with an Agilent 1290 HPLC Infinity series, a CTC PAL chilled autosampler, all controlled by Analyst software. After separation on a C18 reverse phase HPLC column (Acquity UPLC HSS T3, 1.8, 2.1×50 mm) using an acetonitrile-water gradient system, peaks were analyzed by mass spectrometry (MS) using […] ionization in MRM mode.
Whole Blood Stability: Experimental Conditions Experimental Procedure: The stock solution was first diluted in acetonitrile at a concentration that is 100× of the desired final concentration. It was incubated in duplicate with whole blood at 37° C. At indicated times, an aliquot was removed from each experimental and control reaction and mixed with three volumes of ice-cold Stop Solution (methanol containing propranolol as internal standard). Stopped reactions were incubated at least ten minutes at −20° C. The samples were centrifuged to remove precipitated protein, and the supernatants were analyzed by LC-MS/MS to quantitate the remaining parent and the formation of metabolites.
Data were converted to % remaining by dividing by the time zero concentration value. Data were fit to a first-order decay model to determine half-life.

[2] = Oral absorption / oral bioavailability of 151 and 100; conditions: rat, in vivo
in vivo = conditions: rat, iv, 1.4 mg/kg; for Kp at 0.25 hr / Kp at 1 hr / Kp at 2 hr: Liver-plasma concentration ratio of Endothal
Method: 113 was dissolved in 4% NaHCO3 in saline for IV administration. The detailed procedure of dosing solution preparation was presented in Appendix I.
15 animals were placed on the study. The animals in IV arm were free access to food and water. For PO dose group, the animals were fasted overnight prior to dosing and the food was resumed 4 hours postdose.
The IV injection was conducted via foot dorsal vein. PO via oral gavage.
Blood collection: The animal is restrained manually. Approximately 200 μL of blood/time point is collected into sodium heparin tube via cardiac puncture for terminal bleeding (anesthetized under carbon dioxide). Blood sample will be put on ice and centrifuged to obtain plasma sample (2000 g, 5 min under 4° C.) within 10 minutes.
Liver collection: The animal will be euthanized with carbon dioxide inhalation. Open abdominal cavity with scissor to expose internal organs. Hold the carcass in an upright position and allow the organs to fall forward. Cut the connective tissues and remove the organs. Then the organs are rinsed with cold saline, dried on filtrate paper, placed into a screw-top tube and weighed, snap frozen by placing into dry-ice immediately.
Brain collection: Make a mid-line incision in the animals scalp and retract the skin. Using small bone cutters and rongeurs, remove the skull overlying the brain. Remove the brain using a spatula and rinse with cold saline, dried on filtrate paper, placed into a screw-top tube and weighed, snap frozen by placing into dry-ice immediately. […] Plasma, brain and liver samples were stored at approximately −80° C. until analysis. The backup samples will be discarded after three weeks after in-life completion unless requested. The unused dosing solutions will be discarded within three weeks after completion of the study.
Pharmacokinetic Analysis Software: The PK parameters were determined by non-compartmental model of non-compartmental analysis tool, Pharsight Phoenix WinNonlin® 6.2 software. […] Concentration data within 80%-120% of LLOQ was considered within normal instrumental variation and presented in the results. Terminal t1/2 calculation: Time points were automatic selected by “best fit” model for terminal half life estimation as the first option. Manual selection was applied when “best fit” could not well define the terminal phase. Results

[3] = male, SD, liver concentration of Endothal

| Compound | metabolite formation in whole blood half-life study [1] | bioavailability [2] [%] | Kp at 0.25 hr (in vivo; male, SD) | Kp at 1 hr (in vivo; male, SD) | Kp at 2 hr (in vivo; male, SD) | Kp at 0.25 hr (in vivo; male, SD, 113 IV 1.4 mg/kg, SD rats, 0.25 hr, mean) | Kp at 1 hr (in vivo; male, SD, 113 IV 1.4 mg/kg, SD rats, 1 hr, individual) | Kp at 2 hr (in vivo; male, SD, 113 IV 1.4 mg/kg, SD rats, 2 hr, individual) | concentration at 0.25 hr (in vivo; [3]) [ng/g] | concentration at 1 hr (in vivo; [3]) [ng/g] | concentration at 2 hr (in vivo; [3]) [ng/g] | concentration at 6 hr (in vivo; [3]) [ng/g] | concentration at 10 hr (in vivo; [3]) [ng/g] | concentration at 24 hr (in vivo; [3]) [ng/g] | concentration at 2 hr (in vivo; male, SD, plasma concentration of Endothal) [ng/mL] | AUC(0-last) in liver (in vivo) [ng·h/g] | AUC(0-∞) in liver (in vivo) [ng·h/g] |
| --- | --- | --- | --- | --- | --- | --- | --- | --- | --- | --- | --- | --- | --- | --- | --- | --- | --- |
| COC(=O)C1C2CCC(O2)C1C(=O)N1CCN(C)CC1 (centres unmarked) [Compound 151] | No metabolites were detected | ~60 |  |  |  |  |  |  |  |  |  |  |  |  |  |  |  |
| O=C(O)C1C2CCC(O2)C1C(=O)O (centres unmarked) [Endothal, 7-oxabicyclo[2.2.1]heptane-2,3-dicarboxylic acid] |  |  | 29.2 | 27.9 | 23 | 22.7 | 21.7 | 45.7 | 727 | 902 | 998 | 526 | 288 | 66.9 | 30.4 | 8086 | 8678 |
